Laboratory results reported in patent publication US12435039B2, “Activators of caspase-8/c-FLIPL dimerization and their use in cancer therapy” (priority 2018, dated 2025).

Assays:
c-FLIPL = assay: Western Blot time-dependent analysis of c-FLIPL levels; assay type: cell-based, human; settings: HeLa-CD95 cells; 20 μM FLIPinBγ up to 16 hours; first hours after administration
Experimental: (§1) Analysis of total cell lysates by Western Blot analysis—The Western Blot analysis of total cellular lysates was performed in accordance to the inventors' previous reports (Schmidt et al., 2015).

[1] = tested on: HeLa-CD95-FL cells (CD95/c-FLIPL-overexpressing); assay: Cell viability quantification by ATP assay (CellTiter-Glo), HeLa-CD95-FL cells; assay type: cell-based, human
Source text: (§2) Cell lines—Human cervical cancer HeLa-CD95 cells (Neumann et al., 2010) (CD95-overexpressing cells) and HeLa-CD95-FL cells (CD95/c-FLIPL-overexpressing cells) were maintained in DMEM/Ham's (Merck Millipore, Germany) supplemented with 10% heat-inactivated fetal calf serum, 1% Penicillin-Streptomycin and 0.0001% Puromycin in 5% CO2. Human acute myeloid leukemia MV-4-11 cells and T lymphoma Jurkat cells were maintained in RPMI 1640 (Thermo Fisher Scientific Inc., USA) supplemented with 10% heat-inactivated fetal calf serum and 1% Penicillin-Streptomycin in 5% CO2.
(§3) Cell viability quantification by ATP assay—50 μL of the CellTiter-Glo® solution was added to each well and measurements were performed according to manufacturer's instructions (CellTiter-Glo® Luminescent Cell Viability Assay, Promega, Germany). The luminescence intensity was analyzed by a microplate reader Infinite M200pro (Tecan, Switzerland). The viability of untreated cells was taken as one relative unit (RU). Every condition was performed in duplicate.

HeLa-CD95 cells [2] = assay: Cell viability quantification by ATP assay (CellTiter-Glo), HeLa-CD95 cells; assay type: cell-based, human
Source text: as §2, §3

Jurkat cells = assay: Cell viability quantification by ATP assay (CellTiter-Glo), Jurkat cells; assay type: cell-based, human
Source text: as §2, §3

[3] = tested on: caspase-3/7 in HeLa-CD95 cells; assay: Caspase-3/7 activity by IncuCyte live cell imaging (Caspase-3/7 Green); assay type: cell-based, human
[4] = tested on: procaspase-8, RIPK1 and PARP cleavage in HeLa-CD95 cells; assay: Western Blot analysis of total cellular lysates, CD95L-induced cleavage; assay type: cell-based, human; settings: 20 μM FLIPinBγ two hours, CD95L 60 ng/mL three hours
Experimental: as §1

[5] = tested on: caspase-3/7 in Jurkat cells; assay: Caspase-3/7 activity assay (Caspase-Glo 3/7), Jurkat cells; assay type: cell-based, human
Experimental: Caspase-3/7 activity assay—Caspase activity was measured by adding 50 μL of the Caspase-Glo®3/7 solution to each well. The luminescence intensity was analyzed by a microplate reader Infinite M200pro (Tecan, Switzerland) according to manufacturer's instructions (Caspase-Glo® 3/7 Assay, Promega, Germany). The caspase activity of non-treated cells was taken as one relative unit (RU). Every condition was performed in duplicate.

MV-4-11 cells = assay: Cell viability quantification by ATP assay (CellTiter-Glo), MV-4-11 cells; assay type: cell-based, human; settings: FLIPinBγ two hours, then CD95L 1000 ng/mL for 6 hours
Source text: as §2, §3

caspase-8 at the DISC = assay: Caspase-8 activity assay on CD95 DISC-IPs (Caspase-Glo 8); assay type: biochemical, human; settings: CD95 DISC-IPs from HeLa-CD95 cells; 20 μM FLIPinBγ two hours, CD95L 60 ng/mL three hours
Experimental: CD95 DISC-IP—The CD95 DISC-IP (Immunoprecipitation) from 5×10^6 HeLa-CD95 cells were done as described before (Pietkiewicz et al., 2015). In addition, DISC-IPs were washed four times with PBS, which was followed by Western Blot analysis or caspase-8 activity assays.
Caspase-8 activity assay—Each of protein A beads samples with CD95 DISC-IPs were resuspended in 95 μL of CHAPS-Buffer (50 mM HEPES pH=7.2; 50 mM NaCl; 10 mM EDTA; 5% Glycerin; 10 mM DTT, 0.1% CHAPS) and transferred into a 96-well plate. Caspase-8 activity was measured according to manufacturer's instructions (Caspase-Glo® 8 Assay, Promega, Germany). Every condition was performed in duplicate. The luminescence intensity was analyzed by a microplate reader Infinite M200pro (Tecan, Switzerland).

HeLa-CD95 cells [6] = assay: Cell death detection using IncuCyte live cell imaging (Cytotox Red); assay type: cell-based; settings: 40 μM FLIPinBγ two hours
Experimental: Cell death detection using IncuCyte™ live cell imaging—HeLa-CD95 cells in a 96 well plate (5×10^3 cells/well) were pre-incubated with FLIPinBγ for 2 hours. […] To monitor cell death, cells were treated with IncuCyte™ Cytotox Red Reagent (1:4000) and Caspase-3/7 Green Apoptosis Assay Reagent (1:5000). The cells were imaged every hour by IncuCyte® ZOOM (Essen BioScience, Michigan) with a […] objective for a period of 6 hours. Every condition was performed in triplicate. Data were analyzed by the IncuCyte® ZOOM Software (2016A).

[7] = tested on: caspase activity in HeLa-CD95 cells; assay: Caspase activity in HeLa-CD95 cells (FLIPinB); assay type: cell-based, human; settings: FLIPinB with CD95L/TRAIL

SMILES: O=C(NCCOC(=O)c1cccc(S(=O)(=O)NCc2cccnc2)c1)c1ccc(-c2ccncc2)cc1 [FLIPinBγ, 2-[[4-(4-pyridyl)benzoyl]amino]ethyl 3-(3-pyridylmethylsulfamoyl)benzoate]
- influence on c-FLIPL expression (c-FLIPL): no influence
- relative efficiency across cell lines ([1]; HeLa-CD95-FL cells overexpressing c-FLIPL): most efficient
- CD95L-induced loss of cell viability ([1]; HeLa-CD95-FL cells, FLIPinBγ two hours, then CD95L 238 ng/mL for 6 hours): efficiently promoted a loss of cell viability in a dose- and time-dependent manner
- CD95L-induced loss of cell viability (HeLa-CD95 cells [2]; FLIPinBγ two hours, then CD95L 60 ng/mL for 22 hours): efficiently promoted a loss of cell viability in a dose- and time-dependent manner
- CD95L-induced loss of cell viability (Jurkat cells; FLIPinBγ two hours, then CD95L 60 ng/mL for 6 hours): efficiently promoted a loss of cell viability in a dose- and time-dependent manner
- caspase-3/7 activity in single cells, FLIPinBγ/TRAIL co-administration [3]: increase
- caspase-3/7 activity in single cells, FLIPinBγ/CD95L co-administration ([3]; 40 μM FLIPinBγ two hours, CD95L 50 ng/mL): increase
- CD95L-induced RIPK1 cleavage [4]: slight increase
- CD95L-induced cleavage of PARP [4]: increases
- CD95L-induced cleavage of procaspase-8 to p18 [4]: increases
- caspase-3/7 activity, FLIPinBγ/CD95L co-treatment ([5]; 20 μM FLIPinBγ two hours, CD95L 60 ng/mL four hours): increase
- caspase-3/7 activity, FLIPinBγ/TRAIL co-treatment ([5]; 20 μM FLIPinBγ two hours, TRAIL 100 ng/mL three hours): increase
- CD95L-induced loss of cell viability (MV-4-11 cells): efficiently promoted a loss of cell viability in a dose- and time-dependent manner
- caspase-8 activity at the DISC (caspase-8 at the DISC): increased
- CD95L-induced cell death (Cytotox Red live cell imaging) (HeLa-CD95 cells [6]; CD95L 50 ng/mL, in the first hours): enhanced
- TRAIL-induced cell death (Cytotox Red live cell imaging) (HeLa-CD95 cells [6]; TRAIL 100 ng/mL, most prominent in the first hours): enhanced

SMILES: O=C(NCCOC(=O)c1cccc(S(=O)(=O)NCc2ccccc2)c1)c1ccc(-c2ccccc2)cc1 [FLIPinB, 2-[(4-phenylbenozyl)amino]ethyl 3-(benzylsulfamoyl)benzoate]
- resistance of HeLa-CD95-FL cells to CD95L ([1]; HeLa-CD95-FL cells, FLIPinB plus CD95L): allowed to overcome the resistance
- CD95L-induced loss of cell viability (HeLa-CD95 cells [2]; FLIPinB plus CD95L): enhanced
- TRAIL-induced loss of cell viability (HeLa-CD95 cells [2]; FLIPinB plus TRAIL): enhanced
- initial experimental screening of FLIPins: viability upon FLIPin/CD95L vs CD95L-only (Jurkat cells): showed the best properties in the initial selection
- CD95L-induced loss of cell viability (Jurkat cells; FLIPinB plus CD95L vs CD95L only): enhanced
- TRAIL-induced loss of cell viability (Jurkat cells; FLIPinB plus TRAIL): enhanced
- caspase activity [7]: increased
- caspase activity ([5]; FLIPinB with CD95L/TRAIL): increased
